Results from the supplement of paper PMC8149375.

Columns and labels:
786-O [1] = test: GI50 of drug in presence of dasatinib; higher = less potent; conditions: treatment: drug + dasatinib (fixed dose, not stated); 5 days
Method: (§1)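 Primary HTS combination arm: 8 RCC cell lines treated with 8 doses (up to 10 uM) of each library drug plus a fixed dose of dasatinib (dose not stated) for 5 days; viability read by CellTiter-Glo and normalised to DMSO. GI50 was fitted with XLfit, AUC is the area under the dose-response curve, and minimum viability is the lowest fraction of DMSO viability across doses.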

A498 [2] = test: as above; conditions: treatment: drug + dasatinib (fixed dose, not stated); 5 days
Method: as §1

CAKI-1 [3] = test: as above; conditions: treatment: drug + dasatinib (fixed dose, not stated); 5 days
Method: as §1

SN12C [4] = test: as above; conditions: treatment: drug + dasatinib (fixed dose, not stated); 5 days
Method: as §1

TK-10 [5] = test: as above; conditions: treatment: drug + dasatinib (fixed dose, not stated); 5 days
Method: as §1

UO-31 [6] = test: as above; conditions: treatment: drug + dasatinib (fixed dose, not stated); 5 days
Method: as §1

769-P [7] = test: minimum viability across doses, drug + dasatinib, relative to DMSO (fraction); higher = less growth inhibition; conditions: treatment: drug + dasatinib (fixed dose, not stated); 5 days
Method: as §1

786-O [8] = test: as above; conditions: treatment: drug + dasatinib (fixed dose, not stated); 5 days
Method: as §1

A498 [9] = test: as above; conditions: treatment: drug + dasatinib (fixed dose, not stated); 5 days
Method: as §1

ACHN [10] = test: as above; conditions: treatment: drug + dasatinib (fixed dose, not stated); 5 days
Method: as §1

CAKI-1 [11] = test: as above; conditions: treatment: drug + dasatinib (fixed dose, not stated); 5 days
Method: as §1

SN12C [12] = test: as above; conditions: treatment: drug + dasatinib (fixed dose, not stated); 5 days
Method: as §1

TK-10 [13] = test: as above; conditions: treatment: drug + dasatinib (fixed dose, not stated); 5 days
Method: as §1

UO-31 [14] = test: as above; conditions: treatment: drug + dasatinib (fixed dose, not stated); 5 days
Method: as §1

769-P [15] = test: AUC of dose-response viability curve, drug + dasatinib, normalised to DMSO (arbitrary (AUC of normalised viability)); higher = less growth inhibition; conditions: treatment: drug + dasatinib (fixed dose, not stated); 5 days
Method: as §1

786-O [16] = test: as above; conditions: treatment: drug + dasatinib (fixed dose, not stated); 5 days
Method: as §1

A498 [17] = test: as above; conditions: treatment: drug + dasatinib (fixed dose, not stated); 5 days
Method: as §1

ACHN [18] = test: as above; conditions: treatment: drug + dasatinib (fixed dose, not stated); 5 days
Method: as §1

CAKI-1 [19] = test: as above; conditions: treatment: drug + dasatinib (fixed dose, not stated); 5 days
Method: as §1

SN12C [20] = test: as above; conditions: treatment: drug + dasatinib (fixed dose, not stated); 5 days
Method: as §1

TK-10 [21] = test: as above; conditions: treatment: drug + dasatinib (fixed dose, not stated); 5 days
Method: as §1

UO-31 [22] = test: as above; conditions: treatment: drug + dasatinib (fixed dose, not stated); 5 days
Method: as §1

769-P [23] = test: GI50, drug alone; higher = less potent; conditions: treatment: drug alone; 5 days
Method: as §1, with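 “HTS:” for “HTS combination arm:”, “alone” for “plus a fixed dose of dasatinib (dose not stated)”, “XLfit (4-parameter),” for “XLfit,”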

786-O [24] = test: GI50, drug alone; higher = less potent; conditions: treatment: drug alone; 5 days
Method: as §1, with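 “HTS:” for “HTS combination arm:”, “alone” for “plus a fixed dose of dasatinib (dose not stated)”, “XLfit (4-parameter),” for “XLfit,”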

A498 [25] = test: GI50, drug alone; higher = less potent; conditions: treatment: drug alone; 5 days
Method: as §1, with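 “HTS:” for “HTS combination arm:”, “alone” for “plus a fixed dose of dasatinib (dose not stated)”, “XLfit (4-parameter),” for “XLfit,”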

ACHN [26] = test: GI50, drug alone; higher = less potent; conditions: treatment: drug alone; 5 days
Method: as §1, with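 “HTS:” for “HTS combination arm:”, “alone” for “plus a fixed dose of dasatinib (dose not stated)”, “XLfit (4-parameter),” for “XLfit,”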

CAKI-1 [27] = test: GI50, drug alone; higher = less potent; conditions: treatment: drug alone; 5 days
Method: as §1, with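 “HTS:” for “HTS combination arm:”, “alone” for “plus a fixed dose of dasatinib (dose not stated)”, “XLfit (4-parameter),” for “XLfit,”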

SN12C [28] = test: GI50, drug alone; higher = less potent; conditions: treatment: drug alone; 5 days
Method: as §1, with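 “HTS:” for “HTS combination arm:”, “alone” for “plus a fixed dose of dasatinib (dose not stated)”, “XLfit (4-parameter),” for “XLfit,”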

TK-10 [29] = test: GI50, drug alone; higher = less potent; conditions: treatment: drug alone; 5 days
Method: as §1, with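 “HTS:” for “HTS combination arm:”, “alone” for “plus a fixed dose of dasatinib (dose not stated)”, “XLfit (4-parameter),” for “XLfit,”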

UO-31 [30] = test: GI50, drug alone; higher = less potent; conditions: treatment: drug alone; 5 days
Method: as §1, with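 “HTS:” for “HTS combination arm:”, “alone” for “plus a fixed dose of dasatinib (dose not stated)”, “XLfit (4-parameter),” for “XLfit,”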

769-P [31] = test: minimum viability across doses, drug alone, relative to DMSO (fraction); higher = less growth inhibition; conditions: treatment: drug alone; 5 days
Method: as §1, with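 “HTS:” for “HTS combination arm:”, “alone” for “plus a fixed dose of dasatinib (dose not stated)”, “XLfit (4-parameter),” for “XLfit,”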

786-O [32] = test: as above; conditions: treatment: drug alone; 5 days
Method: as §1, with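 “HTS:” for “HTS combination arm:”, “alone” for “plus a fixed dose of dasatinib (dose not stated)”, “XLfit (4-parameter),” for “XLfit,”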

A498 [33] = test: as above; conditions: treatment: drug alone; 5 days
Method: as §1, with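 “HTS:” for “HTS combination arm:”, “alone” for “plus a fixed dose of dasatinib (dose not stated)”, “XLfit (4-parameter),” for “XLfit,”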

ACHN [34] = test: as above; conditions: treatment: drug alone; 5 days
Method: as §1, with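 “HTS:” for “HTS combination arm:”, “alone” for “plus a fixed dose of dasatinib (dose not stated)”, “XLfit (4-parameter),” for “XLfit,”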

CAKI-1 [35] = test: as above; conditions: treatment: drug alone; 5 days
Method: as §1, with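 “HTS:” for “HTS combination arm:”, “alone” for “plus a fixed dose of dasatinib (dose not stated)”, “XLfit (4-parameter),” for “XLfit,”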

SN12C [36] = test: as above; conditions: treatment: drug alone; 5 days
Method: as §1, with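 “HTS:” for “HTS combination arm:”, “alone” for “plus a fixed dose of dasatinib (dose not stated)”, “XLfit (4-parameter),” for “XLfit,”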

TK-10 [37] = test: as above; conditions: treatment: drug alone; 5 days
Method: as §1, with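 “HTS:” for “HTS combination arm:”, “alone” for “plus a fixed dose of dasatinib (dose not stated)”, “XLfit (4-parameter),” for “XLfit,”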

UO-31 [38] = test: as above; conditions: treatment: drug alone; 5 days
Method: as §1, with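 “HTS:” for “HTS combination arm:”, “alone” for “plus a fixed dose of dasatinib (dose not stated)”, “XLfit (4-parameter),” for “XLfit,”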

769-P [39] = test: AUC of dose-response viability curve, drug alone (arbitrary (AUC of normalised viability)); higher = less growth inhibition; conditions: treatment: drug alone; 5 days
Method: as §1, with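 “HTS:” for “HTS combination arm:”, “alone” for “plus a fixed dose of dasatinib (dose not stated)”, “XLfit (4-parameter),” for “XLfit,”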

786-O [40] = test: as above; conditions: treatment: drug alone; 5 days
Method: as §1, with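 “HTS:” for “HTS combination arm:”, “alone” for “plus a fixed dose of dasatinib (dose not stated)”, “XLfit (4-parameter),” for “XLfit,”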

A498 [41] = test: as above; conditions: treatment: drug alone; 5 days
Method: as §1, with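 “HTS:” for “HTS combination arm:”, “alone” for “plus a fixed dose of dasatinib (dose not stated)”, “XLfit (4-parameter),” for “XLfit,”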

ACHN [42] = test: as above; conditions: treatment: drug alone; 5 days
Method: as §1, with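 “HTS:” for “HTS combination arm:”, “alone” for “plus a fixed dose of dasatinib (dose not stated)”, “XLfit (4-parameter),” for “XLfit,”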

CAKI-1 [43] = test: as above; conditions: treatment: drug alone; 5 days
Method: as §1, with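 “HTS:” for “HTS combination arm:”, “alone” for “plus a fixed dose of dasatinib (dose not stated)”, “XLfit (4-parameter),” for “XLfit,”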

SN12C [44] = test: as above; conditions: treatment: drug alone; 5 days
Method: as §1, with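 “HTS:” for “HTS combination arm:”, “alone” for “plus a fixed dose of dasatinib (dose not stated)”, “XLfit (4-parameter),” for “XLfit,”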

TK-10 [45] = test: as above; conditions: treatment: drug alone; 5 days
Method: as §1, with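 “HTS:” for “HTS combination arm:”, “alone” for “plus a fixed dose of dasatinib (dose not stated)”, “XLfit (4-parameter),” for “XLfit,”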

UO-31 [46] = test: as above; conditions: treatment: drug alone; 5 days
Method: as §1, with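 “HTS:” for “HTS combination arm:”, “alone” for “plus a fixed dose of dasatinib (dose not stated)”, “XLfit (4-parameter),” for “XLfit,”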

NC(=O)c1ccc(-c2nc(-c3ccc4c(c3)OCO4)c(-c3ccccn3)[nH]2)cc1 + Cc1nc(Nc2ncc(C(=O)Nc3c(C)cccc3Cl)s2)cc(N2CCN(CCO)CC2)n1 [dasatinib]
GI50 of drug (786-O [1]): 2.37 µM | GI50 of drug (A498 [2]): > 10 µM | GI50 of drug (CAKI-1 [3]): 3 µM | GI50 of drug (SN12C [4]): > 10 µM | GI50 of drug (TK-10 [5]): > 10 µM | GI50 of drug (UO-31 [6]): > 10 µM | minimum viability across doses (769-P [7]): 0.234 | minimum viability across doses (786-O [8]): 0.485 | minimum viability across doses (A498 [9]): 0.592 | minimum viability across doses (ACHN [10]): 0.317 | minimum viability across doses (CAKI-1 [11]): 0.456 | minimum viability across doses (SN12C [12]): 0.446 | minimum viability across doses (TK-10 [13]): 0.636 | minimum viability across doses (UO-31 [14]): 0.844 | AUC of dose-response viability curve (769-P [15]): 1.77 | AUC of dose-response viability curve (786-O [16]): 2.24 | AUC of dose-response viability curve (A498 [17]): 3.17 | AUC of dose-response viability curve (ACHN [18]): 2.08 | AUC of dose-response viability curve (CAKI-1 [19]): 2.18 | AUC of dose-response viability curve (SN12C [20]): 2.41 | AUC of dose-response viability curve (TK-10 [21]): 2.75 | AUC of dose-response viability curve (UO-31 [22]): 3.57

Cc1cc(C(C)Nc2ccccc2)c2nc(N3CCOCC3)cc(=O)n2c1 (configuration not stated) [TGX-221] + Cc1nc(Nc2ncc(C(=O)Nc3c(C)cccc3Cl)s2)cc(N2CCN(CCO)CC2)n1 [dasatinib]
GI50 of drug (A498 [2]): > 10 µM | GI50 of drug (CAKI-1 [3]): 0.231 µM | GI50 of drug (SN12C [4]): > 10 µM | GI50 of drug (TK-10 [5]): > 10 µM | GI50 of drug (UO-31 [6]): 4.86 µM | minimum viability across doses (769-P [7]): 0.346 | minimum viability across doses (786-O [8]): 0.299 | minimum viability across doses (A498 [9]): 0.949 | minimum viability across doses (ACHN [10]): 0.424 | minimum viability across doses (CAKI-1 [11]): 0.281 | minimum viability across doses (SN12C [12]): 0.624 | minimum viability across doses (TK-10 [13]): 0.554 | minimum viability across doses (UO-31 [14]): 0.349 | AUC of dose-response viability curve (769-P [15]): 2.01 | AUC of dose-response viability curve (786-O [16]): 2.04 | AUC of dose-response viability curve (A498 [17]): 3.6 | AUC of dose-response viability curve (ACHN [18]): 1.82 | AUC of dose-response viability curve (CAKI-1 [19]): 1.83 | AUC of dose-response viability curve (SN12C [20]): 2.4 | AUC of dose-response viability curve (TK-10 [21]): 2.35 | AUC of dose-response viability curve (UO-31 [22]): 3.16

O=c1cc(N2CCOCC2)oc2c(-c3cccc4c3sc3ccccc34)cccc12
GI50, drug alone (769-P [23]): 9.84 µM | GI50, drug alone (786-O [24]): 3.26 µM | GI50, drug alone (A498 [25]): > 10 µM | GI50, drug alone (ACHN [26]): 6.82 µM | GI50, drug alone (CAKI-1 [27]): 2.78 µM | GI50, drug alone (SN12C [28]): > 10 µM | GI50, drug alone (TK-10 [29]): 9.09 µM | GI50, drug alone (UO-31 [30]): > 10 µM | minimum viability across doses (769-P [31]): 0.489 | minimum viability across doses (786-O [32]): 0.0967 | minimum viability across doses (A498 [33]): 0.62 | minimum viability across doses (ACHN [34]): 0.35 | minimum viability across doses (CAKI-1 [35]): 0.184 | minimum viability across doses (SN12C [36]): 0.561 | minimum viability across doses (TK-10 [37]): 0.447 | minimum viability across doses (UO-31 [38]): 0.476 | AUC of dose-response viability curve (769-P [39]): 3.36 | AUC of dose-response viability curve (786-O [40]): 2.69 | AUC of dose-response viability curve (A498 [41]): 3.5 | AUC of dose-response viability curve (ACHN [42]): 3.44 | AUC of dose-response viability curve (CAKI-1 [43]): 2.74 | AUC of dose-response viability curve (SN12C [44]): 3.26 | AUC of dose-response viability curve (TK-10 [45]): 3.15 | AUC of dose-response viability curve (UO-31 [46]): 3.93
